Consider 6 compounds from US6787552B2, “PPAR delta activators” (Nippon Chemiphar Co., Ltd., priority 2000, dated 2004).

In one data set the target is T1, PPARα (Homo sapiens, UniProt Q07869).
T1 construct: Receptor expression plasmid (GAL4-hPPARα, LBD GAL4-hPPARγ LBD, GAL4-hPPARδ LBD); expressed in transfected cells; host or cells: CV-1 cells
T1 sequence (Q07869 239-466 limits assumed): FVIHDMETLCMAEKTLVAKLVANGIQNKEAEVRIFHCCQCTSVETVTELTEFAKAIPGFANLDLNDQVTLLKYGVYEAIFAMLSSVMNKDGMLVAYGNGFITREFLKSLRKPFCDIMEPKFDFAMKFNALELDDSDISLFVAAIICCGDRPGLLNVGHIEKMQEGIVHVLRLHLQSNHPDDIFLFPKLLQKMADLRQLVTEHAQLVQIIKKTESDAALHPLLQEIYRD
The data set is described as follows: PPARα transactivation activity (GAL4-hPPARα LBD / UASx4-TK-LUC reporter in CV-1 cells). It counts as cell-based. Particulars: CV-1; in the manner as described in Example 9; Table 26; read-out: PPARα (PPAR activating power). The protocol:
(§1) (1) Measurement of PPARα,γ,δ Transactivation Activity
(§2) PPARα,γ,δ transactivation activity of each compound [Examples 1-6 and known PPARδ agonist (L-16504: Berger, J., et al. (1999), J. Biol. Chem., 274:6718-6725)] was measured in the manner described below.
(§3) CV-1 was obtained from Tohoku University Aging Medical Laboratory, Medical Cell Collection Center. All test compounds were dissolved in dimethylsulfoxide (DMSO) to give a test sample of 0.1% concentration.
(§4) Receptor expression plasmid (GAL4-hPPARα, LBD GAL4-hPPARγ LBD, GAL4-hPPARδ LBD), Reporter plasmid (UASx4-TK-LUC), and β-galactosidase expression plasmid (βGAL) similar to Kliewer, S. A., et al., ((1992) Nature, 358:771-774) were employed.
(§5) CV-1 cells were seeded in 24 well culture plates at 2×10^5 cells per well, and cultured for 24 hours using 4%-fetal bovine serum(FBS)-added OPTI-MEM I Reduced Serum Medium (Life Technologies, 500 μL/well). Subsequently, the cells were washed with non serum-added OPTI-MEM. To the washed cells were added DNA-containing solution [the following components were contained in the one well solution (250 μl): 0.03 μg of GAL4-hPPARδ LBD, 0.25 μg of UASx4-TK-LUC, 0.35 μg of βGAL, and 2 μL of lipofection reagent, DMRIE-C (Life Technologies). These components were dissolved in OPTI-MEM and allowed to stand for 30 minutes at room temperature]. The cells were incubated for 5 hours at 37° C.
(§6) The cells were then incubated for 40 hours in 500 μL of fresh OPTI-MEM containing 4% FBS and the test compound (dissolved in 100% DMSO to reach a final concentration: 10^−4M or 10^−5M).
(§7) The culture medium was removed and the cells were washed with PBS twice. Cell lysates were produced using a solubilizing buffer (25 mM Tris-PO4 (pH 7.8), 15%v/v glycerol, 2% CHAPS, 1% Lecithin, 1% BSA, 4 mM EGTA (pH 8.0), 8 mM MgCl2, 1 mM DTT). A portion (20 μL) of the solution was transferred onto a 96-well plate. Subsequently, 100 μL of luciferase substrate solution (Piccagene: available from Nippon Gene Co., Ltd.) was added, and a luminous intensity per one sec. (luciferase activity) was measured by means of MLR-100 type Microluminoreader (available from Corona Electrics Co., Ltd.). Further, the activity caused by […] incorporation which was incorporated into the cells simultaneously with the incorporation of the luciferase gene was measured, for correcting variation of luciferase activity by the addition of the compound, utilizing the transfection efficiency of the incorporated gene. β-Galactosidase activity was measured by the following method: 50 μL of the solubilized sample was placed on another 96-well plate; 10 μL of ONPG (2-nitrophenyl-β-galactopyranoside) solution was added; incubation was carried out for 5 minutes at room temperature; 50 μL of a reaction stopping solution (1M sodium carbonate solution) was added; and the absorbance at 414 nm was measured.

A further data set addresses T2, PPARγ (Homo sapiens, UniProt P37231).
T2 construct: Receptor expression plasmid (GAL4-hPPARα, LBD GAL4-hPPARγ LBD, GAL4-hPPARδ LBD); expressed in transfected cells; host or cells: CV-1 cells
T2 sequence (P37231 238-503 limits assumed): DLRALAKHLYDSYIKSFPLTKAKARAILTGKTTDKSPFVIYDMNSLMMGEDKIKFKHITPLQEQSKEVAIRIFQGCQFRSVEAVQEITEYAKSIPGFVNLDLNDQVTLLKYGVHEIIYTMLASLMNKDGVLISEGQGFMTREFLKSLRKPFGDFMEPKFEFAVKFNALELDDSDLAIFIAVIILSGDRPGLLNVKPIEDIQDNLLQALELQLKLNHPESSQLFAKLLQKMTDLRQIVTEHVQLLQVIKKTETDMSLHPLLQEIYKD
The data set is described as follows: PPARγ transactivation activity (GAL4-hPPARγ LBD / UASx4-TK-LUC reporter in CV-1 cells). The data set is classed as cell-based. Particulars: CV-1; in the manner as described in Example 9; Table 26; read-out: PPARγ (PPAR activating power). The protocol: In the same manner, relative ligand activities to PPARδ and γ transactivation activitis are calculated (see the below-mentioned Example 9).
as §1, §2, §3, §4, §5, §6, §7

A further data set addresses T3, PPARδ (Homo sapiens, UniProt Q03181).
T3 construct: A chimeric receptor expression plasmid (GAL4-hPPARδ LBD); expressed in transfected cells; host or cells: CV-1 cells
T3 sequence (Q03181 211-439 limits assumed): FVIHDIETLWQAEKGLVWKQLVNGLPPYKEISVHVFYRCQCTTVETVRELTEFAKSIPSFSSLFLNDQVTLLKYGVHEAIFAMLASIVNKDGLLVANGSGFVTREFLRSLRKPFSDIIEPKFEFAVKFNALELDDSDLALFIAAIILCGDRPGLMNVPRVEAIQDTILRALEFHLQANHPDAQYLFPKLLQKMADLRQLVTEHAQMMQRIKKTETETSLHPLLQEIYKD
The data set is described as follows: PPARδ transactivation activity (GAL4-hPPARδ LBD / UASx4-TK-LUC reporter in CV-1 cells). It counts as cell-based. The conditions noted are these: for Emax: CV-1, 40 h, in the manner as described in Example 9, Table 26, read-out: PPARδ (PPAR activating power); for activity to PPARδ relative to activity to PPARα and γ (selectivity): CV-1 cells, GAL4-hPPAR LBD reporter, relative activities vs control reagents. The protocol: A chimeric receptor expression plasmid (GAL4-hPPARδ LBD), a reporter plasmid (UASx4-TK-LUC) and β-galactosidase (β-GAL) are transfected into CV-1 cells by utilizing a lipofection reagent DMRIE-C (Life Technologies).
as §1
CV-1 was obtained from Tohoku University Aging Medical Laboratory, Medical Cell Collection Center.
as §5, §6, §7

Usually melting point stands for the temperature, or range, at which the solid turns liquid. With `CC(C)c1oc(-c2ccc(Cl)cc2Cl)nc1CCC(=O)c1ccc(OC(C)(C)C(=O)O)cc1` [Example 7-4, 2-[4-[3-[2-(2,4-Dichlorophenyl)-5-isopropyl-4-oxazolyl]propionyl]phenyloxy]-2-methylpropionic acid], the melting point fell in the range of 100 to 105 °C. For the same compound, the Emax on PPARα worked out at 1%. For the same compound, the Emax at PPARγ was determined as 2%. Besides, on PPARδ, the Emax came out at 86 ± 10%; the “activity to PPARδ relative to activity to PPARα and γ (selectivity)” value was “higher”.
On to `CC(C)c1oc(-c2cc3ccccc3o2)nc1CCC(=O)c1ccc(OC(C)(C)C(=O)O)cc1` [Example 7-7, 2-[4-[3-[2-(2-Benzofuranyl)-5-isopropyl-4-oxazolyl]propionyl]phenyloxy]-2-methylpropionic acid], for which the melting point fell in the range of 135 to 139 °C. Also, the Emax at PPARα was 1%. For the same compound, at PPARγ, the Emax stood at 9%. At PPARδ, the Emax amounted to 65 ± 2%.
`CC(C)c1oc(-c2cccc(Cl)c2O)nc1CCC(=O)c1ccc(OC(C)(C)C(=O)O)cc1` [Example 7-12, 2-[4-[3-[2-(3-Chloro-2-hydroxyphenyl)-5-isopropyl-4-oxazolyl]propionyl]phenyloxy]-2-methylpropionic acid]: the Emax came out at 8 ± 1% on PPARα, 4% at PPARγ and 79 ± 2% on PPARδ. Moreover, at PPARδ, the “activity to PPARδ relative to activity to PPARα and γ (selectivity)” value is “selectively higher”.
As to `CC(C)c1oc(-c2ccc(Br)cc2Cl)nc1CCC(=O)c1ccc(OC(C)(C)C(=O)O)cc1` [Example 7-13, 2-[4-[3-[2-(4-Bromo-2-chlorophenyl)-5-isopropyl-4-oxazolyl]propionyl]phenyloxy]-2-methylpropionic acid], the Emax is 1% on PPARα, 3% at PPARγ and 81% at PPARδ.
Taken in the same sequence, the figures for `CC(C)c1oc(-c2ccc(-c3ccccc3)cc2Cl)nc1CCC(=O)c1ccc(OC(C)(C)C(=O)O)cc1` [Example 7-14, 2-[4-[3-[2-(3-Chloro-4-biphenylyl)-5-isopropyl-4-oxazolyl]propionyl]phenyloxy]-2-methylpropionic acid] were 2%, 18% and 53%.
For the compound `CC(C)c1oc(-c2ccc(Cl)cc2Cl)nc1CCC(=O)c1cccc(OC(C)(C)C(=O)O)c1` [Example 8-2, 2-[3-[3-[2-(2,4-Dichlorophenyl)-5-isopropyl-4-oxazolyl]propionyl]phenyloxy)-2-methylpropionic acid], the melting point was 115 to 120 °C.
